Assay results as given in patent US4032645A, “Injectable metronidazole composition” (G. D. Searle & Co., priority 1975, dated 1977).
Where two headings read alike, the source gives them in different places.

How the values were obtained:
[1] = water; cited from earlier work
[2] = most stable at a pH range; cited from earlier work
[3] = assay type: physicochemical; details: for amount dissolved: ethanol
Description: The critical features of the solubility of metronidazole, [1-(2-hydroxyethyl)-2-methyl-5-nitroimidazole] are evident from FIGS. 1 through 6.
It is observed that the optimum solubility in water-ethanol mixtures occur at about 80% ethanol.
It is considered desirable to maintain N,N-dimethylacetamide concentrations in any formulation at a relatively low level. In FIG. 2, it is shown that 20% N,N-dimethylacetamide is not a suitable solvent system in combination with water or ethanol alone. Those satisfied with less desirable formulation could use a solvent system of 20% N,N-dimethylacetamide, 40% water, and 40% ethanol. […] One would also believe this for combinations of 30% N,N-dimethylacetamide and water and ethanol.
It can be observed from FIG. 3 that, unexpectedly, a solvent system of 30% N,N-dimethylacetamide in combination with the indicated proportions of ethanol and water solubilizes more than 500 mg./10 ml. of metronidazole.
Also, unexpectedly, FIGS. 4, 5 and 6 illustrate that the combination of ethanol, water and N,N-dimethylacetamide can be made to dissolve more than 500 mg. of metronidazole by the addition of nicotinamide, propylene glycol or 2,2-dimethyl-1,3-dioxolane-4-methanol. These systems have the advantages of an even lower percentage composition of N,N-dimethylacetamide. Optimum systems and the solubility of metroinidazole therein are illustrated in Table 1.

Cc1ncc([N+](=O)[O-])n1CCO [metronidazole, 1-(2-hydroxyethyl)-2-methyl-5-nitroimidazole]
aqueous solubility [1]: about 100 mg./10 ml. | pH range of greatest stability [2]: 5.0-7.5 | ethanol content at optimum solubility in water-ethanol mixtures [3]: about 80% | solubility [3]: more than 500 mg./10 ml. | amount dissolved ([3]; water and N,N-dimethylacetamide with addition of 2,2-dimethyl-1,3-dioxolane-4-methanol (FIG. 5)): more than 500 mg. | amount dissolved ([3]; water and N,N-dimethylacetamide with addition of nicotinamide (FIG. 6)): more than 500 mg. | amount dissolved ([3]; water and N,N-dimethylacetamide with addition of propylene glycol (FIG. 4)): more than 500 mg.
